Source: ChEMBL document CHEMBL3112546, “Synthetic α-(aminomethyl)-γ-butyrolactones and their anti-pancreatic cancer activities” (2013)
Structures can show the parent of a compound that is named as a salt. Activity calls are given as the source filed them. The rule behind the calls is not given here.

How the values were obtained:
[1] = Antiproliferative activity against human BxPC3 cells assessed as cell growth at 10 uM after 72 hrs by CellTitre assay relative to control; format: functional; details: BXPC-3, 72 h, read-out: Activity
[2] = Antiproliferative activity against human MIAPaCa2 cells assessed as cell growth at 10 uM after 72 hrs by CellTitre assay relative to control; format: functional; details: MIA PaCa-2, 72 h, read-out: Activity
[3] = Antiproliferative activity against human PANC1 cells assessed as cell growth at 10 uM after 72 hrs by CellTitre assay relative to control; format: functional; details: PANC-1, 72 h, read-out: Activity
PANC-1 = experiment: Antiproliferative activity against human PANC1 cells assessed as cell growth at >100 uM after 72 hrs by CellTitre assay relative to control; format: functional, cell-based

Compound	growth at 10 µM [1]	growth at 10 µM [2]	growth at 10 µM [3]	Activity (PANC-1)
C=C1C(=O)O[C@@H]2[C@H]3O[C@]3(C)CC/C=C(\C)CC[C@@H]12	6%	3%	12%	–
C=C1C(=O)O[C@@H](c2ccccc2)[C@@H]1c1ccccc1 (racemic)	1%	1%	1%	–
C=C1C(=O)O[C@H](c2ccccc2)[C@@H]1c1ccccc1 (racemic)	8%	3%	38%	–
CN(C)C[C@H]1C(=O)O[C@@H](c2ccccc2)[C@@H]1c1ccccc1 (racemic)	0%	1%	0%	–
CN(C)C[C@@H]1C(=O)O[C@H](c2ccccc2)[C@@H]1c1ccccc1 (racemic)	1%	9%	30%	–
CCN(CC)C[C@H]1C(=O)O[C@@H](c2ccccc2)[C@@H]1c1ccccc1 (racemic)	0%	1%	1%	–
CCN(CC)C[C@@H]1C(=O)O[C@H](c2ccccc2)[C@@H]1c1ccccc1 (racemic)	1%	17%	42%	–
O=C1O[C@@H](c2ccccc2)[C@H](c2ccccc2)[C@H]1CN1CCCC1 (racemic)	0%	1%	3%	–
O=C1O[C@H](c2ccccc2)[C@H](c2ccccc2)[C@@H]1CN1CCCC1 (racemic)	0%	17%	11%	–
O=C1O[C@@H](c2ccccc2)[C@H](c2ccccc2)[C@H]1CN1CCCCC1 (racemic)	1%	1%	1%	–
O=C1O[C@H](c2ccccc2)[C@H](c2ccccc2)[C@@H]1CN1CCCCC1 (racemic)	3%	11%	8%	–
O=C1O[C@@H](c2ccccc2)[C@H](c2ccccc2)[C@H]1CN1CCOCC1 (racemic)	9%	10%	16%	–
O=C1O[C@H](c2ccccc2)[C@H](c2ccccc2)[C@@H]1CN1CCOCC1 (racemic)	6%	13%	19%	–
O=C1O[C@@H](c2ccccc2)[C@H](c2ccccc2)[C@H]1CN(Cc1ccccc1)Cc1ccccc1 (racemic)	50%	35%	–	inactive
O=C1O[C@H](c2ccccc2)[C@H](c2ccccc2)[C@@H]1CN(Cc1ccccc1)Cc1ccccc1 (racemic)	34%	33%	75%	–
O=C1O[C@@H](c2ccccc2)[C@H](c2ccccc2)[C@H]1CN(Cc1ccccc1)C(=O)c1ccccc1 (racemic)	81%	92%	–	inactive
C/C1=C\CC[C@@]2(C)O[C@@H]2[C@H]2OC(=O)[C@@H](CN(C)C)[C@@H]2CC1 [(DIMETHYLAMINO)PARTHENOLIDE FUMARIC ACID SALT]	7%	2%	17%	–
